Results on 3 compounds are retold here after patent US11485728B2, “Small molecules for the treatment of autoimmune diseases and cancer” (Athos Therapeutics, Inc., priority 2020, dated 2022).

Data set [1] is described as follows: In-vitro half-life in mouse liver microsomes. The data set is classed as in vitro ADME. Particulars: Mouse liver microsomes 0.5 mg/mL; 1 μg/mL drug; NRS; read-out: Metabolic Half-life. The method, then: (§1) In each of the species (human, rat, mouse) of liver matrix to be tested, a working concentration of 2 μg/mL was prepared of each test article from the 0.5 mg/mL DMSO stock solution by adding 3 μL of 0.5 mg/mL test article stock solution to 747 μL of the 1 mg/mL liver matrix. Incubation was performed at 37±2° C. with gentle, continuous mixing in shaking water bath in 2.0 mL-well capacity 96-Deepwell plates (96-DWP). Samples were retrieved in duplicate at the following time points: 0, 5, 10, 15, 30 and 60 minutes. The final mixture contained 1 μg/mL of drug and 0.5 mg/mL of liver matrix. First, 50 μL of test articles in liver matrix was added to the 96-DWP and pre-warmed the mixture in the 96-DWP for 2 minutes in the 37° C. water bath. The enzymatic reaction was started by the addition of 50 μL of the corresponding 2× NADPH regenerating system (NRS) cofactor solution to all sample wells and stopped by the addition of 300 μL of stop solution (acetonitrile containing 10 ng/mL Tolbutamide as an internal standard (I.Std.). The samples were agitated for 10 minutes and then centrifuged for 20 minutes at 4500 rpm. 25 μL of supernatant was diluted with 475 μL acetonitrile containing I. Std. into a new 96-DWPs for LC-MS/MS analysis.
(§2) Half-life calculations were generated and calculated by Graphpad Prism® software. The half-life of test compound was calculated based on the first-order reaction kinetics. The data was transformed to linear regression (y=log(y) where “y” axis represents the % compound remaining at any given time with respect to time 0 minutes; “x” axis represents time in minutes) in order to calculate the half-life.
(§3) A comparison of metabolic stability in time-course incubation experiments in varying species of liver can provide information of pharmacokinetic properties of drugs attributable to species-related differences in hepatic metabolism. The results of these experiments often assist in further applications such as assessing in vitro metabolite profiling and choosing relevant species for toxicology studies based on similarities relative to the metabolic stability to the human profile. For these experiments, the test compound was tested in parallel with a positive control, Dasatinab, in an enzymatic reaction solution of each species (human and rat) of liver microsomes containing a NADPH regenerating system (NRS). The final mixture contained 1 μg/mL of drug and 0.5 mg/mL of liver matrix. Incubations were performed at 37±2° C. with gentle, continuous mixing in shaking water bath in 96-Deep well plates. The stability of the test compound is monitored using fast, specific and sensitive LC/MS/MS analysis.

Data set [2] is described as follows: In-vitro half-life in rat liver microsomes. Particulars: Rat liver microsomes 0.5 mg/mL; 1 μg/mL drug; NRS; read-out: Metabolic Half-life. The data set is classed as in vitro ADME. On the procedure:
as §1, §2, §3
(In general: Microsomes from liver hold many membrane-bound enzymes, among them those of drug oxidation.)

Data set [3] can be described thus: Formulation visual stability (DMA/PG/PEG 300/water). The data set is classed as physicochemical. Particulars: 25° C., 10-11 mg/mL in DMA/PG/PEG 300/Water. On the procedure: All formulations were conducted with FDA approved excipients and with high purity material such as USP grade quality. Formulation stability of test articles are performed using HPLC purity method described within analytical section. This formula may be used for oral administration of the compounds described herein; […]. Since these compounds have high solubility in lower pH as described in the solubility study section, the intervenous delivery is performed with 100% phosphate buffer solution of pH 6.5 allowing up to 7 mg/mL concentration. The formulated test articles can be store at 4° C. Prior to dosing, it should be warmed and vortexed for about 1 min to make a homogenous solution. If needed, filter through 0.2 μM syringe filter to maintain clean and sterile.

The nature of data set [4]: In-vitro half-life in human liver microsomes. The data set is classed as in vitro ADME. Particulars: Human liver microsomes 0.5 mg/mL; 1 μg/mL drug; NRS; read-out: Metabolic Half-life. On the procedure: as §1, §2, §3
The subject of data set [5] is HT-29 colorectal cancer cells. Nature of the data set: HT-29 cell viability (Real-Time-Glo). Particulars: Homo sapiens, HT-29; 72 hr; read-out: IC50, Cell line: HT-29. The class given is cell-based. On the procedure: Equal volume of 2× RealTime-Glo™ reagent (2 μl of MT Cell Viability Substrate 1,000×, and 2 μl of NanoLuc® Enzyme 1,000×, per 1 ml of media, Promega) was added to each well and cells were incubated at 37° C. Luminescence was evaluated at 72 h.
(§4) To determine the plating density for cell viability assays, for each cell line, cells were counted and diluted to final densities of 2.5, 5, 10 and 20 thousand per 100 μl of their respective growth media per well in 96 well plates. A Promega Real-Time-Glo cell viability kit was used to determine the optimal concentration for cell plating so that each cell line would be within the linear part of its growth curve after 72 hrs in culture. […] Test compounds were then added at different concentrations for the creation of six-point curve and cell density was determined using the Promega Real-Time-Glo cell viability kit after 24, 48, and 72 hrs in culture.
Specifically, the Promega Real-Time-Glo cell viability kit was used to determine the optimal concentration for cell plating so that each cell line would be within the linear part of its growth curve after 72 hrs in culture. […] Test compounds are then added at different concentrations for the creation of six-point curve and cell density is determined using the Promega Real-Time-Glo cell viability kit after 24, 48, and 72 hrs in culture. […]

Another data set can be described thus: PAMPA permeability. Particulars: PAMPA, 5 hours at RT.
A further data set deals with HCT-116. As to the kind of experiment: HCT-116 cell viability (Real-Time-Glo). The class given is cell-based. Particulars: Homo sapiens, 72 hr, read-out: IC50, Cell line: HCT-116. The method, then: as §4
The conditions of data set [6]: cited from earlier work.
The next data set concerns mouse. Particulars: oral; cited from earlier work.

pIC50: −log10 of the molar value. Some results are limits rather than exact numbers.

Description for PAMPA permeability: Parallel artificial membrane permeability (PAMPA) assay is a non-cell based assay designed to predict in vivo biological membrane permeability of drugs in early stage of drug discovery. […] The Corning Gentest Pre-coated PAMPA plate system was designed by 96-well insert system with a 0.45 μm PVDF (polyvinylidene fluoride) filter plate which has been pre-coated with structured tri-layers of phospholipids (lipid/oil/lipid) and a matched receiver microplate.
Donor solutions of test compounds (300 μL, 20 μM in PBS/MeOH 90:10) were added to each well of the donor plate. 200 μL of PBS/MeOH 90:10 was added to each well of the acceptor plate. The acceptor plate was coupled with the donor plate and incubated for 5 hours at room temperature (RT) without agitation. In each plate, compounds were tested in triplicate. At the end of the incubation, drug concentration in the initial donor solution, acceptor and the donor wells were determined using LC/MS/MS. A five (5) points standard curve from 0.1 to 1000 nM for each test compound were prepared. Analyte samples were diluted to within standard curve concentration with ACN/H2O 50:50 prior analysis.
All samples were analyzed by electrospray ionization (ESI) liquid chromatograph/mass spectrometry (LC/MS) system utilizing Sciex 5500 quadropule ion trap (Qtrap) mass spectrometry with Shidmazu Nexera X2 UHPLC. The LC-MS/MS instrument monitored each of the test compound in the study based of their respective mass-to-charge (m/z) transitions and MS parameters. Chromatographic separation was achieved on Phenomenex Luna C18 column (50×2.0 mm, 3 μm particle size) by using a gradient elution: mobile phase A contains 0.1% formic acid in water and mobile phase B contains 0.1% formic acid in acetonitrile; A/B (99:1) from 0 to 1 minutes; to A/B (1:99) from 1 to 4 minutes; A/B (1:99) from 4 to 8 minutes; to A/B (99:1) from 8 to 8.20 minutes; A/B (99:1) from 8.2 to 9 minutes. The flow rate was 0.4 mL/min and the column temperature was maintained at 35° C. and autosampler temperature at 4° C. For detection, the electrospray ionization operated in the positive mode using multiple reaction monitoring (MRM).
Data acquisition, and peak integrations were obtained by Analyst® Version 1.7.1 (Sciex) operating with Windows® (Microsoft). The standard curve regressions and sample concentrations were generated and calculated by Analyst®. Concentrations in the sample solutions were determined based on the measured peak area ratios from the response of the analyte to the internal standard with reference to the standard calibration curve. All sample calculations were calculated using a linear regression with 1/x^2 weighting (where x is the concentration of given calibration standard level).
Permeability of the test compounds was calculated using the following formula:
The permeability of compounds was evaluated with the parallel artificial membrane permeation assay (PAMPA) as an in vivo model of passive diffusion across a porous filter coated with a lipid/oil/lipid tri-layer artificial membrane. […] Donor solutions of test compounds (300 μL, 20 μM in PBS/MeOH 90:10) were added to each well of the donor plate. 200 μL of PBS/MeOH 90:10 was added to each well of the acceptor plate. The acceptor plate was coupled with the donor plate and incubated for 5 hours at room temperature (RT) without agitation. In each plate, compounds were tested in triplicate. At the end of the incubation, drug concentration in the initial donor solution, acceptor and the donor wells were determined using LC/MS/MS. Permeability of test compounds was calculated based on the formula described in the General Procedures above. The PAMPA permeability classification criteria are categorized into three (3) classes with a high (Pe≥1.5×10−6 cm/s), intermediate (5.5×10−8<Pe<1.5×10−6 cm/s), and low (Pe<5.5×10−8 cm/s) permeability.

One may read the half-life as how long it takes for the measured level to halve. As usually defined, the pIC50 is the IC50 on a negative log10 scale, so that one unit is a factor of ten. The term Papp denotes the rate of passage across a membrane or cell layer, normalised by area and donor concentration. A lower Papp goes with poor permeation. On to `COc1cc2c(NC3CCN(C4CCCCC4)CC3)nc(N3CCCN(C(C)C)CC3)nc2cc1OCCCN1CCCCC1` [Compound 402, reference compound], for which the half-life at 1 μg/mL in data set [1], in [2] and in data set [4] was greater than 1 h each time. The Appearance result in data set [3] (30 min), in [3] (1 h), in [3] (5 h), in data set [3] (24 h) and in [3] (7 d) was “clear” each time. For the same compound, the pIC50 in data set [5] was 4.70 to 5.00; with HCT-116 it was 5.00 to 5.30. In addition, the Papp at 5 h, 20 μM is less than 0.055 ×10⁻⁶ cm/s in the data set “PAMPA permeability” (PAMPA permeability Classification, 20 μM donor) and 0.00971 ×10⁻⁶ cm/s in the data set “PAMPA permeability” (Permeability, Pe, 20 μM donor in PBS/MeOH 90:10).

Consider `O=C(O)Cc1ccccc1Nc1c(Cl)cccc1Cl` [Diclofenac], for which the “permeability of positive control (published)” value in data set [6] was “high permeability”.

The LD50 is the dose at which mortality reaches 50%. For the compound `CC(O)CO` (centres unmarked) [PG, propylene glycol], the LD50 with mouse was 22000 mg/kg.
